# Measured values as given in patent publication US8846669B2, “Oxazolidinone derivative and medical composition containing same” (Legochem Biosciences, Inc., priority 2011, dated 2014).
# Like-named read-outs stand apart in the source and are kept apart here.
# Tests used:
# Experiment in all cases: In vitro antibacterial activity, broth microdilution MIC90
# Format in all cases: cell-based
# [1] = tested on: Linezolid and Vancomycin Resistant Enterococcus faecalis; details: Enterococcus faecalis
# Method: (§1) MIC90 was measured by broth microdilution method based on CLSI standards [reference: Clinical and Laboratory Standards Institute Document. (2000) Methods for Dilution Antimicrobial Susceptibility Test for Bacteria that Grow Aerobically-Fifth Edition: M7-A5. CLSI, Villanova, Pa.].
# (§2) Activities of 12 strains including Staphylococcus aureus, Methicillin Resistant Staphylococcus aureus, Staphylococcus epidermidis, Methicillin Resistant Staphylococcus epidermidis, Enterococcus faecalis, Vancomycin Resistant Enterococcus faecalis, Linezolid and Vancomycin Resistant Enterococcus faecalis, Enterococcus faecium, Vancomycin Resistant Enterococcus faecium, Linezolid and Vancomycin Resistant Enterococcus faecium, and Moraxella catarrhalis, were measured, and results are shown in Table 1 below.
# (§3) The final concentration of test material in the antibacterial test was from 0.063 μg/mL (minimum) to 128 μg/mL (maximum), and the final concentration of DMSO used as an excipient was 2.5% (V/V). Linezolid represented by Formula B below (manufactured by Pfizer) was used as a control and bacterial activity thereof was compared with those of the test materials.
# [2] = tested on: Staphylococcus epidermidis; details: Staphylococcus epidermidis
# Method: as §1, §2, §3
# [3] = tested on: Methicillin Resistant Staphylococcus aureus; details: Staphylococcus aureus
# Method: as §1, §2, §3
# [4] = tested on: Linezolid and Vancomycin Resistant Enterococcus faecium (strain 11); details: Enterococcus faecium
# Method: as §1, §2, §3
# [5] = tested on: Vancomycin Resistant Enterococcus faecium; details: Enterococcus faecium
# Method: as §1, §2, §3
# Enterococcus faecium = details: Enterococcus faecium
# Method: as §1, §2, §3
# Staphylococcus aureus = details: Staphylococcus aureus
# Method: as §1, §2, §3
# [6] = tested on: Methicillin Resistant Staphylococcus epidermidis; details: Staphylococcus epidermidis
# Method: as §1, §2, §3
# [7] = tested on: Linezolid and Vancomycin Resistant Enterococcus faecium (strain 10); details: Enterococcus faecium
# Method: as §1, §2, §3
# Moraxella catarrhalis = details: Moraxella catarrhalis
# Method: as §1, §2, §3
# Enterococcus faecalis = details: Enterococcus faecalis
# Method: as §1, §2, §3
# [8] = tested on: Vancomycin Resistant Enterococcus faecalis; details: Enterococcus faecalis
# Method: as §1, §2, §3
SMILES,MIC90 [1],MIC90 [2],MIC90 [3],MIC90 [4],MIC90 [5],MIC90 (Enterococcus faecium),MIC90 (Staphylococcus aureus),MIC90 [6],MIC90 [7],MIC90 (Moraxella catarrhalis),MIC90 (Enterococcus faecalis),MIC90 [8],other results
CC(=O)NC[C@H]1CN(c2ccc(-c3ccc(N4C=NN(C(=O)C5COC(C)(C)O5)CC4)nc3)c(F)c2)C(=O)O1 (stereo partly drawn) [Compound 20],8 µg/mL,4 µg/mL,8 µg/mL,8 µg/mL,2 µg/mL,2 µg/mL,2 µg/mL,4 µg/mL,8 µg/mL,8 µg/mL,2 µg/mL,2 µg/mL,
CC(=O)NC[C@H]1CN(c2ccc(-c3ccc(N4C=NN(C(=O)C(O)CO)CC4)nc3)c(F)c2)C(=O)O1 (stereo partly drawn) [Compound 21],,,,,,,,,,,,,"MIC90 ([1]; strain 7, E. faecalis VanA LR, read-out: MIC90): 2 µg/mL; MIC90 ([2]; strain 3, S. epidermidis, read-out: MIC90): 0.5 µg/mL; MIC90 ([3]; strain 2, S. aureus MR, read-out: MIC90): 1 µg/mL; MIC90 ([4]; strain 11, E. faecium VanA LR, read-out: MIC90): 4 µg/mL; MIC90 ([5]; strain 9, E. faecium VanA, read-out: MIC90): 0.5 µg/mL; MIC90 (Enterococcus faecium; strain 8, E. faecium, read-out: MIC90): 0.5 µg/mL; MIC90 (Staphylococcus aureus; strain 1, S. aureus, read-out: MIC90): 0.25 µg/mL; MIC90 ([6]; strain 4, S. epidermidis MR, read-out: MIC90): 1 µg/mL; MIC90 ([7]; strain 10, E. faecium VanA LR, read-out: MIC90): 2 µg/mL; MIC90 (Moraxella catarrhalis; strain 12, M. catarrhalis, read-out: MIC90): 4 µg/mL; MIC90 (Enterococcus faecalis; strain 5, E. faecalis, read-out: MIC90): 1 µg/mL; MIC90 ([8]; strain 6, E. faecalis VanA, read-out: MIC90): 1 µg/mL"
COC(=O)NC[C@H]1CN(c2ccc(-c3ccc(N4C=NN(C)CC4)nc3)c(F)c2)C(=O)O1 [Compound 24],4 µg/mL,0.5 µg/mL,1 µg/mL,8 µg/mL,0.5 µg/mL,0.5 µg/mL,0.5 µg/mL,2 µg/mL,4 µg/mL,4 µg/mL,1 µg/mL,1 µg/mL,
COC(=O)NC[C@H]1CN(c2ccc(-c3ccc(N4C=NN(C(=O)CO)CC4)nc3)c(F)c2)C(=O)O1 [Compound 25],4 µg/mL,0.25 µg/mL,0.5 µg/mL,2 µg/mL,0.5 µg/mL,0.25 µg/mL,0.063 µg/mL,1 µg/mL,4 µg/mL,4 µg/mL,0.5 µg/mL,0.5 µg/mL,
COC(=O)NC[C@H]1CN(c2ccc(-c3ccc(N4C=NN(C(N)=O)CC4)nc3)c(F)c2)C(=O)O1 [Compound 26],4 µg/mL,0.5 µg/mL,1 µg/mL,2 µg/mL,0.5 µg/mL,0.25 µg/mL,0.25 µg/mL,1 µg/mL,4 µg/mL,4 µg/mL,0.5 µg/mL,0.5 µg/mL,
CNC(=O)N1CCN(c2ccc(-c3ccc(N4C[C@H](CNC(=O)OC)OC4=O)cc3F)cn2)C=N1 [Compound 27],4 µg/mL,1 µg/mL,2 µg/mL,2 µg/mL,0.5 µg/mL,0.25 µg/mL,0.5 µg/mL,2 µg/mL,2 µg/mL,4 µg/mL,0.5 µg/mL,0.5 µg/mL,
CCN1CCN(c2ccc(-c3ccc(N4C[C@H](CO)OC4=O)cc3F)cn2)C=N1 [Compound 29],64 µg/mL,4 µg/mL,8 µg/mL,64 µg/mL,8 µg/mL,8 µg/mL,8 µg/mL,8 µg/mL,64 µg/mL,32 µg/mL,16 µg/mL,16 µg/mL,
O=C1O[C@@H](Cn2ccnn2)CN1c1ccc(-c2ccc(N3C=NNCC3)nc2)c(F)c1 [Compound 30],4 µg/mL,0.5 µg/mL,1 µg/mL,2 µg/mL,0.5 µg/mL,0.25 µg/mL,0.25 µg/mL,2 µg/mL,2 µg/mL,4 µg/mL,0.5 µg/mL,1 µg/mL,
CN1CCN(c2ccc(-c3ccc(N4C[C@H](Cn5ccnn5)OC4=O)cc3F)cn2)C=N1 [Compound 31],2 µg/mL,0.25 µg/mL,1 µg/mL,2 µg/mL,0.25 µg/mL,0.25 µg/mL,0.25 µg/mL,1 µg/mL,1 µg/mL,2 µg/mL,0.5 µg/mL,0.5 µg/mL,
